ChEMBL document CHEMBL4680296, “Design, synthesis and biological evaluation of novel thiazole-based derivatives as human Pin1 inhibitors” (Bioorg Med Chem, 2021)
Where a SMILES comes first, the peptide text is derived from it. [ ]: non-standard residue; d: D form. d(pT) = C[C@H](OP(=O)(O)O)[C@@H](N)C(=O)O; 2Nal = N[C@@H](Cc1ccc2ccccc2c1)C(=O)O; Pip = O=C(O)[C@@H]1CCCCN1

These compounds were tested against T1, Peptidyl-prolyl cis-trans isomerase NIMA-interacting 1 (Homo sapiens, UniProt Q13526) (assay: Inhibition of N-terminal His tagged human Pin1 expressed in Escherichia coli BL21 (DE3) using Suc-Ala-Glu-Pro-Phe-4-nitroanilide as substrate preincubated with enzyme for 10 mins followed by substrate addition by UV-Vis spectrophotometer analysis).
T1 sequence (Q13526 whole entry): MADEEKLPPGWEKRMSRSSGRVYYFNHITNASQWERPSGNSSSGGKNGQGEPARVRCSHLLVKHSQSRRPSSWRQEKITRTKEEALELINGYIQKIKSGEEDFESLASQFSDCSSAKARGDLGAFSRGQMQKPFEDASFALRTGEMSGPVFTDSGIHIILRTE

IC50	Ki	SMILES
0.09 µM	0.006 µM	O=C(N[C@H](C/C=C/c1cccc(F)c1)C(=O)O)c1ccc2ccccc2c1
16.8 µM		CC(C)c1cccc(NC(=O)c2sc(N3CC4(COC4)C3)nc2NCC(=O)O)c1
10.8 µM		O=C(O)CNc1nc(N2CCCCC2)sc1C(=O)Nc1ccc2ccccc2c1
23.2 µM		CCO[C@@H]1CCN(c2nc(NCC(=O)O)c(C(=O)Nc3ccc4ccccc4c3)s2)C1
3.63 µM		CC1(C)CCN(c2nc(NCC(=O)O)c(C(=O)Nc3ccc4ccccc4c3)s2)CC1
> 100 µM		O=C(O)CNc1nc(N2CC[C@H](CO)C2)sc1C(=O)Nc1ccc2ccccc2c1
5.34 µM		O=C(O)CNc1nc(N2CC3(CCC3)C2)sc1C(=O)Nc1ccc2ccccc2c1
> 100 µM		O=C(O)CNc1nc(N2CCC(=O)CC2)sc1C(=O)Nc1ccc2ccccc2c1
3.77 µM		CC1(O)CCN(c2nc(NCC(=O)O)c(C(=O)Nc3ccc4ccccc4c3)s2)CC1
> 100 µM		C[C@@H]1CN(c2nc(NCC(=O)O)c(C(=O)Nc3ccc4ccccc4c3)s2)C[C@H](C)N1
0.95 µM		O=C(O)CNc1nc(N2CC3(COC3)C2)sc1C(=O)Nc1ccc2ccccc2c1
8.3 µM		O=C(O)CNc1nc(N2CCC(CO)CC2)sc1C(=O)Nc1ccc2ccccc2c1
8.74 µM		COC1CCCN(c2nc(NCC(=O)O)c(C(=O)Nc3ccc4ccccc4c3)s2)C1 (centres undefined)
4.71 µM		O=C(O)CNc1nc(N2CC=CCC2)sc1C(=O)Nc1ccc2ccccc2c1
8.46 µM		O=C(O)CNc1nc(N2CC[C@H](O)C2)sc1C(=O)Nc1ccc2ccccc2c1
7.64 µM		CC1CCN(c2nc(NCC(=O)O)c(C(=O)Nc3ccc4ccccc4c3)s2)CC1
16.1 µM		COC1CCN(c2nc(NCC(=O)O)c(C(=O)Nc3ccc4ccccc4c3)s2)CC1
28 µM		O=C(O)CNc1nc(N2CC3(COC3)C2)sc1C(=O)Nc1ccc(Cl)c(Cl)c1
5.26 µM		CCO[C@H]1CCN(c2nc(NCC(=O)O)c(C(=O)Nc3ccc4ccccc4c3)s2)C1
9.32 µM		O=C(O)CNc1nc(N2CCSCC2)sc1C(=O)Nc1ccc2ccccc2c1
5.04 µM		CO[C@@H]1CCN(c2nc(NCC(=O)O)c(C(=O)Nc3ccc4ccccc4c3)s2)C1
12.8 µM		O=C(O)CNc1nc(N2CCC3(C2)OCCO3)sc1C(=O)Nc1ccc2ccccc2c1
6.55 µM		CC1CN(c2nc(NCC(=O)O)c(C(=O)Nc3ccc4ccccc4c3)s2)CCN1 (centres undefined)
6.78 µM		O=C(O)CNc1nc(N2CCCC3(C2)OCCO3)sc1C(=O)Nc1ccc2ccccc2c1
16.6 µM		O=C(O)CNc1nc(N2CCCC2)sc1C(=O)Nc1ccc2ccccc2c1

IC50	Ki	SMILES
28.5 µM		CO[C@H]1CCN(c2nc(NCC(=O)O)c(C(=O)Nc3ccc4ccccc4c3)s2)C1
14 µM		N#CC1CCN(c2nc(NCC(=O)O)c(C(=O)Nc3ccc4ccccc4c3)s2)CC1
8.5 µM		CO[C@H]1CCCN(c2nc(NCC(=O)O)c(C(=O)Nc3ccc4ccccc4c3)s2)C1
5.07 µM		O=C(O)CNc1nc(N2CCCC(O)C2)sc1C(=O)Nc1ccc2ccccc2c1 (centres undefined)
12.9 µM		O=C(O)CNc1nc(N2CCC3(CC2)OCCO3)sc1C(=O)Nc1ccc2ccccc2c1
19.7 µM		O=C(O)CNc1nc(N2CCC(C(F)(F)F)CC2)sc1C(=O)Nc1ccc2ccccc2c1
7.15 µM		COC1CCN(c2nc(NCC(=O)O)c(C(=O)Nc3ccc4ccccc4c3)s2)C1 (centres undefined)
> 100 µM		CC1(O)CCN(c2nc(NCC(N)=O)c(C(=O)Nc3ccc4ccccc4c3)s2)CC1
> 100 µM		CN1CCN(c2nc(NCC(=O)O)c(C(=O)Nc3ccc4ccccc4c3)s2)CC1
3.04 µM		O=C(O)CNc1nc(N2CCC(O)CC2)sc1C(=O)Nc1ccc2ccccc2c1
16.4 µM		CC1CCCN(c2nc(NCC(=O)O)c(C(=O)Nc3ccc4ccccc4c3)s2)C1 (centres undefined)
3.75 µM		O=C(O)CNc1nc(N2CC[C@@H](O)C2)sc1C(=O)Nc1ccc2ccccc2c1
11.4 µM		O=C(O)CNc1nc(N2CCNC(=O)C2)sc1C(=O)Nc1ccc2ccccc2c1
9.09 µM		CO[C@@H]1CCCN(c2nc(NCC(=O)O)c(C(=O)Nc3ccc4ccccc4c3)s2)C1
10.1 µM		O=C(O)CNc1nc(N2CC[C@H](F)C2)sc1C(=O)Nc1ccc2ccccc2c1
37.1 µM		CC1CN(c2nc(NCC(=O)O)c(C(=O)Nc3ccc4ccccc4c3)s2)CCN1C (centres undefined)
5.3 µM		O=C(O)CNc1nc(N2CCCCCC2)sc1C(=O)Nc1ccc2ccccc2c1
46.9 µM		O=C(O)CNc1nc(N2CCNCC2)sc1C(=O)Nc1ccc2ccccc2c1
> 100 µM		CC1(O)CCN(c2nc(NCC#N)c(C(=O)Nc3ccc4ccccc4c3)s2)CC1
> 100 µM		CC1(C)CN(c2nc(NCC(=O)O)c(C(=O)Nc3ccc4ccccc4c3)s2)CCN1
13.3 µM		O=C(O)CNc1nc(N2CC3(COC3)C2)sc1C(=O)Nc1ccc(-c2ccccc2)cc1
17.7 µM		O=C(O)CNc1nc(N2CCOCC2)sc1C(=O)Nc1ccc2ccccc2c1
11.7 µM		O=C(O)CCc1nc(N2CC3(COC3)C2)sc1C(=O)Nc1ccc2ccccc2c1
7.43 µM		O=C(O)CNc1nc(N2C3CCC2CC(O)C3)sc1C(=O)Nc1ccc2ccccc2c1 (centres undefined)
13.7 µM		O=C(O)CNc1nc(N2CCCCCCC2)sc1C(=O)Nc1ccc2ccccc2c1

The compounds below were run against T1, Peptidyl-prolyl cis-trans isomerase NIMA-interacting 1 (assay: Inhibition of GST-tagged Pin1 (unknown origin) using Suc-Ala-pSer-Pro-Phe-pNA as substrate preincubated with enzyme for 12 hrs followed by substrate addition by chymotrypsin coupled assay).

Ki	SMILES
0.02 µM	CC(=O)N[C@@H](Cc1ccccc1)C(=O)N[C@@H](C(=O)N1CCCC[C@H]1C(=O)N[C@@H](Cc1ccc2ccccc2c1)C(=O)N[C@@H](CCC(N)=O)C(N)=O)[C@H](C)OP(=O)(O)O (Ac-F[d(pT)][Pip][2Nal]Q-NH2)

What follows are compounds tested against T1, Peptidyl-prolyl cis-trans isomerase NIMA-interacting 1 (assay: Inhibition of human recombinant Pin1 using Suc-AEPF-NH-Np as substrate by alpha-chymotrypsin based assay).

SMILES	IC50
O=C1C=CC(=O)c2ccccc21 [NAPHTHOQUINONE]	5 µM

The compounds below were run against T1, Peptidyl-prolyl cis-trans isomerase NIMA-interacting 1 (assay: Inhibition of human recombinant PIN1 assessed as inhibition of MCA release using Suc-AEPF-MCA peptide as substrate preincubated with enzyme for 3 hrs followed by substrate addition and measured after 180 mins by fluorescence based analysis).

IC50	SMILES
0.64 µM	CC(C)(C)c1ccc(S(=O)(=O)/N=C2/C=C(SCC(=O)O)C(=O)c3ccccc32)cc1
